From PubChem BioAssay (NCI)
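A five-concentration, 48-hour dose response in 96-well plates underlies each endpoint, interpolated linearly between surrounding concentrations. TGI marks complete inhibition of growth.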

How the values were obtained:
Test in all cases: inhibition of tumour cell growth, NCI panel, 48 h
[1] = tested on: 786-0 renal
[2] = tested on: A498 renal
[3] = tested on: A549 NSCLC
[4] = tested on: ACHN renal
[5] = tested on: BT-549 breast
[6] = tested on: CCRF-CEM leukemia
[7] = tested on: COLO 205 colon
[8] = tested on: DU-145 prostate
[9] = tested on: EKVX NSCLC
[10] = tested on: HCC-2998 colon
[11] = tested on: HCT-116 colon
[12] = tested on: HCT-15 colon
[13] = tested on: HL-60(TB) leukemia
[14] = tested on: HOP-62 NSCLC
[15] = tested on: HOP-92 NSCLC
[16] = tested on: HS 578T breast
[17] = tested on: HT29 colon
[18] = tested on: IGROV1 ovarian
[19] = tested on: K-562 leukemia
[20] = tested on: KM12 colon
[21] = tested on: M14 melanoma
[22] = tested on: MALME-3M melanoma
[23] = tested on: MCF7 breast
[24] = tested on: MDA-MB-435
[25] = tested on: MDA-N
[26] = tested on: MOLT-4 leukemia
[27] = tested on: NCI-H226 lung
[28] = tested on: NCI-H23 lung
[29] = tested on: NCI-H460 lung
[30] = tested on: NCI-H522 lung
[31] = tested on: NCI/ADR-RES ovarian
[32] = tested on: OVCAR-3 ovarian
[33] = tested on: OVCAR-4 ovarian
[34] = tested on: OVCAR-5 ovarian
[35] = tested on: OVCAR-8 ovarian
[36] = tested on: PC-3 prostate
[37] = tested on: RPMI-8226 leukemia
[38] = tested on: RXF 393 renal
[39] = tested on: SF-268 CNS
[40] = tested on: SF-295 CNS
[41] = tested on: SF-539 CNS
[42] = tested on: SK-MEL-2 melanoma
[43] = tested on: SK-MEL-28 melanoma
[44] = tested on: SK-MEL-5 melanoma
[45] = tested on: SK-OV-3 ovarian
[46] = tested on: SN12C renal
[47] = tested on: SNB-19 CNS
[48] = tested on: SNB-75 CNS
[49] = tested on: SR leukemia
[50] = tested on: SW-620 colon
[51] = tested on: T-47D breast
[52] = tested on: TK-10 renal
[53] = tested on: U251 CNS
[54] = tested on: UACC-257 melanoma
[55] = tested on: UACC-62 melanoma
[56] = tested on: UO-31 renal

Question: `Cc1ccc(C)c(NC(=O)C(=O)C(c2cnc3ccc([N+](=O)[O-])cc3n2)[N+](=O)[O-])c1` (stereo unspecified) was tested. Which TGI [1] did it give?
Answer: The TGI was greater than 100 µM.

Question: What about the TGI [2] of the same molecule?
Answer: The TGI was 69 µM.

Question: What about the TGI [3] of the same molecule?
Answer: Its TGI is greater than 100 µM.

Question: What about the TGI [4] of the same molecule?
Answer: Its TGI is greater than 100 µM.

Question: And the TGI [5]?
Answer: The TGI was greater than 100 µM.

Question: And the TGI [6]?
Answer: Its TGI is 79.1 µM.

Question: What about the TGI [7] of the same molecule?
Answer: The TGI was greater than 100 µM.

Question: And the TGI [8]?
Answer: Its TGI is greater than 100 µM.

Question: What about the TGI [9] of the same molecule?
Answer: The TGI was greater than 100 µM.

Question: And the TGI [10]?
Answer: Its TGI is greater than 100 µM.

Question: What about the TGI [11] of the same molecule?
Answer: Its TGI is greater than 100 µM.

Question: And the TGI [12]?
Answer: The TGI was greater than 100 µM.

Question: And the TGI [13]?
Answer: Its TGI is 45.2 µM.

Question: And the TGI [14]?
Answer: The TGI was greater than 100 µM.

Question: What about the TGI [15] of the same molecule?
Answer: Its TGI is greater than 100 µM.

Question: And the TGI [16]?
Answer: Its TGI is greater than 100 µM.

Question: And the TGI [17]?
Answer: The TGI was greater than 100 µM.

Question: And the TGI [18]?
Answer: Its TGI is 83.8 µM.

Question: And the TGI [19]?
Answer: The TGI was greater than 100 µM.

Question: And the TGI [20]?
Answer: Its TGI is greater than 100 µM.

Question: And the TGI [21]?
Answer: The TGI was greater than 100 µM.

Question: And the TGI [22]?
Answer: The TGI was greater than 100 µM.

Question: What about the TGI [23] of the same molecule?
Answer: The TGI was greater than 100 µM.

Question: What about the TGI [24] of the same molecule?
Answer: The TGI was greater than 100 µM.

Question: And the TGI [25]?
Answer: Its TGI is greater than 100 µM.

Question: And the TGI [26]?
Answer: Its TGI is greater than 100 µM.

Question: What about the TGI [27] of the same molecule?
Answer: The TGI was greater than 100 µM.

Question: And the TGI [28]?
Answer: The TGI was greater than 100 µM.

Question: What about the TGI [29] of the same molecule?
Answer: Its TGI is greater than 100 µM.

Question: And the TGI [30]?
Answer: Its TGI is greater than 100 µM.

Question: And the TGI [31]?
Answer: The TGI was 63.8 µM.

Question: What about the TGI [32] of the same molecule?
Answer: Its TGI is greater than 100 µM.

Question: What about the TGI [33] of the same molecule?
Answer: The TGI was 38.2 µM.

Question: And the TGI [34]?
Answer: The TGI was greater than 100 µM.

Question: What about the TGI [35] of the same molecule?
Answer: Its TGI is 48.2 µM.

Question: And the TGI [36]?
Answer: The TGI was greater than 100 µM.

Question: And the TGI [37]?
Answer: The TGI was 39.4 µM.

Question: And the TGI [38]?
Answer: The TGI was greater than 100 µM.

Question: And the TGI [39]?
Answer: The TGI was greater than 100 µM.

Question: What about the TGI [40] of the same molecule?
Answer: The TGI was greater than 100 µM.

Question: And the TGI [41]?
Answer: The TGI was greater than 100 µM.

Question: What about the TGI [42] of the same molecule?
Answer: The TGI was greater than 100 µM.

Question: And the TGI [43]?
Answer: Its TGI is greater than 100 µM.

Question: And the TGI [44]?
Answer: Its TGI is greater than 100 µM.

Question: What about the TGI [45] of the same molecule?
Answer: Its TGI is greater than 100 µM.

Question: And the TGI [46]?
Answer: Its TGI is greater than 100 µM.

Question: What about the TGI [47] of the same molecule?
Answer: Its TGI is greater than 100 µM.

Question: And the TGI [48]?
Answer: Its TGI is greater than 100 µM.

Question: What about the TGI [49] of the same molecule?
Answer: The TGI was greater than 100 µM.

Question: What about the TGI [50] of the same molecule?
Answer: Its TGI is greater than 100 µM.

Question: And the TGI [51]?
Answer: Its TGI is greater than 100 µM.

Question: And the TGI [52]?
Answer: The TGI was greater than 100 µM.

Question: What about the TGI [53] of the same molecule?
Answer: The TGI was greater than 100 µM.

Question: What about the TGI [54] of the same molecule?
Answer: Its TGI is greater than 100 µM.

Question: And the TGI [55]?
Answer: The TGI was greater than 100 µM.

Question: What about the TGI [56] of the same molecule?
Answer: Its TGI is greater than 100 µM.
